# Source: patent US20110224210A1, “NOVEL BIS-AMIDES AS ANTI-MALARIAL AGENTS” (priority 2008, published 2011)
# Test system: P. falciparum K1 (strain resistant to chloroquine and pyrimethamine), erythrocytic stages
# Experiment: Plasmodium falciparum in vitro assay, [3H] hypoxanthine incorporation
# Assay type: cell-based
# Conditions: Plasmodium falciparum, K1, P. falciparum strain K1; [3H] hypoxanthine incorporation; read-out: IC50 (nM) on K1
# Protocol: In Vitro Antimalarial Activity: Plasmodium falciparum In Vitro Assay
# In vitro activity against erythrocytic stages of P. falciparum is determined using a [^3H] hypoxanthine incorporation assay. One strain resistant to chloroquine and pyrimethamine (P. falciparum K1) is used in the assays, and all test compounds are compared for activity with the standard drugs chloroquine (sigma C6628) and artemisinin (sigma-36, 159-3). Compounds are diluted in DMSO to 1 mM and added to parasite cultures incubated in RPMI 1640 medium without hypoxanthine, supplemented with HEPES (5.94 g/L), NaHCO3 (2.1 g/L), neomycin (100 U/mL), Albumax (5 g/L) and washed human red cells at 2.5% haematocrit (0.3% parasitaemia). Seven serial doubling dilutions of each compound are prepared in 96-well microtitre plates and incubated in a humidifying atmosphere at 37° C.; 4% CO2, 3% O2, 93% N2.
# After 48 h, 50 μl of [3H] hypoxanthine (0.5 μCi) is added to each well of a plate. The plates are incubated for a further 24 h under the same conditions. The plates are then harvested with a Betaplate cell harvester (Wallac) and washed with distilled water. The dried filters are inserted into a plastic foil with 10 mL of scintillation fluid, and counted in a Betaplate liquid scintillation counter. IC50 values are calculated from sigmoidal inhibition curves using Microsoft Excel.
row,Compound,IC50
1,"Cc1nc(C=CC(=O)N(Cc2ccc(-c3ccncc3)cc2)[C@@H](Cc2ccccc2)C(=O)N2CCC(N(C)C)CC2)c(C)o1 [Example 25, (S)-N-[1-Benzyl-2-(4-dimethylamino-piperidin-1-yl)-2-oxo-ethyl]-3-(2,5-dimethyl-oxazol-4-yl)-N-(4-pyridin-4-yl-benzyl)-acrylamide]",90 nM
2,"CC(=O)N1CCN(c2ccc(CN(C(=O)C=Cc3c(C)nn(C)c3C)[C@@H](Cc3ccccc3)C(=O)N3CCC(N(C)C)CC3)cc2)CC1 [Example 33, (S)-N-[4-(4-Acetyl-piperazin-1-yl)-benzyl]-N-[1-benzyl-2-(4-dimethylamino-piperidin-1-yl)-2-oxo-ethyl]-3-(1,3,5-trimethyl-1H-pyrazol-4-yl)-acrylamide]",319 nM
3,CN(Cc1ccc(N2CCCCC2=O)cc1)C(=O)[C@H](Cc1ccccc1)N(Cc1ccc(N2CCOCC2)cc1)C(=O)C=Cc1ccc(C(F)(F)F)nc1 [Example 274],63 nM
4,COCCN(C)C(=O)C(CN1CCCC1)N(Cc1ccc(-c2ccccn2)cc1)C(=O)C=Cc1ccc(C(F)(F)F)cc1 (racemic) [Example 280],219 nM
5,"COCCN(C)C(=O)[C@H](Cc1ccccc1)N(Cc1ccc(N2CCOCC2)cc1)C(=O)C=Cc1cnc(OC)nc1 [Example 72, (S)-N-{1-[(2-Methoxy-ethyl)-methyl-carbamoyl]-2-phenyl-ethyl}-3-(2-methoxy-pyrimidin-5-yl)-N-(4-morpholin-4-yl-benzyl)-acrylamide]",344 nM
6,CN(C)CCN(Cc1ccccc1)C(=O)[C@H](Cc1ccccc1)N(Cc1ccc(-c2ccccn2)cc1)C(=O)C=Cc1ccc(C(F)(F)F)cc1 [Example 174],430 nM
7,"COCCN(C)C(=O)[C@H](Cc1ccccc1)N(Cc1ccc(-c2ccccn2)cc1)C(=O)C=Cc1nc(C)oc1C [Example 81, (S)-3-(2,5-Dimethyl-oxazol-4-yl)-N-{1-[(2-methoxy-ethyl)-methyl-carbamoyl]-2-phenyl-ethyl}-N-(4-pyridin-2-yl-benzyl)-acrylamide]",102 nM
8,"COCCN(C)C(=O)[C@H](Cc1ccccc1)N(Cc1ccc(N2CCOCC2)cc1)C(=O)C=Cc1ccc(OC)nc1 [Example 71, (S)-N-{1-[(2-Methoxy-ethyl)-methyl-carbamoyl]-2-phenyl-ethyl}-3-(6-methoxy-pyridin-3-yl)-N-(4-morpholin-4-yl-benzyl)-acrylamide]",54 nM
9,"COCCN(C)C(=O)[C@H](Cc1ccccc1)N(Cc1ccc(-c2ccccn2)cc1)C(=O)C=Cc1ccc(OC)nn1 [Example 82, (S)-N-{1-[(2-Methoxy-ethyl)-methyl-carbamoyl]-2-phenyl-ethyl}-3-(6-methoxy-pyridazin-3-yl)-N-(4-pyridin-2-yl-benzyl)-acrylamide]",99 nM
10,"Cc1nc(C)c(C=CC(=O)N(Cc2ccc(-c3cncnc3)cc2)[C@@H](Cc2ccccc2)C(=O)N2CCC(N(C)C)CC2)s1 [Example 37, (S)-N-[1-Benzyl-2-(4-dimethylamino-piperidin-1-yl)-2-oxo-ethyl]-3-(2,4-dimethyl-thiazol-5-yl)-N-(4-pyrimidin-5-yl-benzyl)-acrylamide]",279 nM
11,"COCCN(C)C(=O)[C@H](Cc1ccccc1)N(Cc1ccc(-c2cncnc2)cc1)C(=O)C=Cc1c(C)noc1C [Example 124, (S)-3-(3,5-Dimethyl-isoxazol-4-yl)-N-{1-[(2-methoxy-ethyl)-methyl-carbamoyl]-2-phenyl-ethyl}-N-(4-pyrimidin-5-yl-benzyl)-acrylamide]",110 nM
12,"CN(C)C1CCN(C(=O)[C@H](Cc2ccccc2)N(Cc2ccc(-c3cncnc3)cc2)C(=O)C=Cc2ccc(Cl)nc2)CC1 [Example 40, (S)-N-[1-Benzyl-2-(4-dimethylamino-piperidin-1-yl)-2-oxo-ethyl]-3-(6-chloro-pyridin-3-yl)-N-(4-pyrimidin-5-yl-benzyl)-acrylamide]",490 nM
13,"Cc1nc(C)c(C=CC(=O)N(Cc2ccc(-c3ccncc3)cc2)[C@@H](Cc2ccccc2)C(=O)N2CCC(N(C)C)CC2)s1 [Example 22, (S)-N-[1-Benzyl-2-(4-dimethylamino-piperidin-1-yl)-2-oxo-ethyl]-3-(2,4-dimethyl-thiazol-5-yl)-N-(4-pyridin-4-yl-benzyl)-acrylamide]",60 nM
14,"Cc1nc(C=CC(=O)N(Cc2ccc(-c3ccccn3)cc2)[C@@H](Cc2ccccc2)C(=O)N2CCC(N(C)C)CC2)c(C)o1 [Example 13, (S)-N-[1-Benzyl-2-(4-dimethylamino-piperidin-1-yl)-2-oxo-ethyl]-3-(2,5-dimethyl-oxazol-4-yl)-N-(4-pyridin-2-yl-benzyl)-acrylamide]",355 nM
15,"CC(=O)N1CCN(c2ccc(CN(C(=O)C=Cc3ccc(C(F)(F)F)cc3)[C@@H](Cc3ccccc3)C(=O)N(C)CCOCc3ccc(C(F)(F)F)o3)cc2)CC1 [Example 206, (S)-N-[4-(4-Acetyl-piperazin-1-yl)-benzyl]-N-(1-{methyl-[2-(5-trifluoromethyl-furan-2-ylmethoxy)-ethyl]-carbamoyl}-2-phenyl-ethyl)-3-(4-trifluoromethyl-phenyl)-acrylamide]",81 nM

# Stronger by IC50, values ahead:
row,IC50,Compound
1,33 nM,"CN(CCN(C)C(=O)[C@H](Cc1ccccc1)N(Cc1ccc(-c2ccccn2)cc1)C(=O)C=Cc1ccc(C(F)(F)F)cc1)Cc1ccsc1 [Example 232, (S)-N-(1-{Methyl-[2-(methyl-thiophen-3-ylmethyl-amino)-ethyl]-carbamoyl}-2-phenyl-ethyl)-N-(4-pyridin-2-yl-benzyl)-3-(4-trifluoromethyl-phenyl)-acrylamide]"
2,35 nM,COCCN(C)C(=O)C(Cn1cccc1)N(Cc1ccc(-c2ccncc2)cc1)C(=O)C=Cc1ccc(C(F)(F)F)cc1 (racemic) [Example 282]
3,36 nM,"CN(CCN(C)C(=O)[C@H](Cc1ccccc1)N(Cc1ccc(N2CCOCC2)cc1)C(=O)C=Cc1ccc(C(F)(F)F)cc1)Cc1nccs1 [Example 265, (S)-N-(1-{Methyl-[2-(methyl-thiazol-2-ylmethyl-amino)-ethyl]-carbamoyl}-2-phenyl-ethyl)-N-(4-morpholin-4-yl-benzyl)-3-(4-trifluoromethyl-phenyl)-acrylamide]"
4,39 nM,"CC(=O)N1CCN(c2ccc(CN(C(=O)C=Cc3ccc(C(F)(F)F)cc3)[C@@H](Cc3ccccc3)C(=O)N(C)CCN(C)Cc3ccc4c(c3)OCO4)cc2)CC1 [Example 249, (S)-N-[4-(4-Acetyl-piperazin-1-yl)-benzyl]-N-(1-{[2-(benzo[1,3]dioxol-5-ylmethyl-methyl-amino)-ethyl]-methyl-carbamoyl}-2-phenyl-ethyl)-3-(4-trifluoromethyl-phenyl)-acrylamide]"
5,28 nM,"COCCN(C)C(=O)[C@H](Cc1ccccc1)N(Cc1ccc(-c2cccnc2)cc1)C(=O)C=Cc1sc(C)nc1C [Example 132, (S)-3-(2,4-Dimethyl-thiazol-5-yl)-N-{1-[(2-methoxy-ethyl)-methyl-carbamoyl]-2-phenyl-ethyl}-N-(4-pyridin-3-yl-benzyl)-acrylamide]"
6,33 nM,"COCCN(C)C(=O)[C@H](Cc1ccccc1)N(Cc1ccc(-c2ccncc2)cc1)C(=O)C=Cc1cc(C)on1 [Example 95, (S)-N-{1-[(2-Methoxy-ethyl)-methyl-carbamoyl]-2-phenyl-ethyl}-3-(5-methyl-isoxazol-3-yl)-N-(4-pyridin-4-yl-benzyl)-acrylamide]"
7,9 nM,"CC(=O)N1CCN(c2ccc(CN(C(=O)C=Cc3ccc(C(F)(F)F)cc3)[C@@H](Cc3ccccc3)C(=O)N(C)CCOCc3cc(C)on3)cc2)CC1 [Example 204, (S)-N-[4-(4-Acetyl-piperazin-1-yl)-benzyl]-N-(1-{methyl-[2-(5-methyl-isoxazol-3-ylmethoxy)-ethyl]-carbamoyl}-2-phenyl-ethyl)-3-(4-trifluoromethyl-phenyl)-acrylamide]"
8,13 nM,"COCCN(C)C(=O)[C@H](Cc1ccccc1)N(Cc1ccc(-c2ccncc2)cc1)C(=O)C=Cc1sc(C)nc1C [Example 93, (S)-3-(2,4-Dimethyl-thiazol-5-yl)-N-{1-[(2-methoxy-ethyl)-methyl-carbamoyl]-2-phenyl-ethyl}-N-(4-pyridin-4-yl-benzyl)-acrylamide]"
9,1 nM,"O=C([C@H](Cc1ccccc1)N(Cc1ccc(-c2ccccn2)cc1)C(=O)C=Cc1ccc(C(F)(F)F)cc1)N1CCC(Cc2ccccc2)CC1 [Example 46, (S)-N-[1-Benzyl-2-(4-benzyl-piperidin-1-yl)-2-oxo-ethyl]-N-(4-pyridin-2-yl-benzyl)-3-(4-trifluoromethyl-phenyl)-acrylamide]"
10,9 nM,"COc1ccc(CN(C)CCN(C)C(=O)[C@H](Cc2ccccc2)N(Cc2ccc(-c3ccccn3)cc2)C(=O)C=Cc2ccc(C(F)(F)F)cc2)cn1 [Example 229, (S)-N-[1-({2-[(6-Methoxy-pyridin-3-ylmethyl)-methyl-amino]-ethyl}-methyl-carbamoyl)-2-phenyl-ethyl]-N-(4-pyridin-2-yl-benzyl)-3-(4-trifluoromethyl-phenyl)-acrylamide]"
11,33 nM,"COCCN(C)C(=O)[C@H](Cc1ccccc1)N(Cc1ccc(-c2cccnc2)cc1)C(=O)C=Cc1ccc(Cl)nc1 [Example 134, (S)-3-(6-Chloro-pyridin-3-yl)-N-{1-[(2-methoxy-ethyl)-methyl-carbamoyl]-2-phenyl-ethyl}-N-(4-pyridin-3-yl-benzyl)-acrylamide]"
